The results in this text go back to patent publication USRE32992E, “Peptide process for preparation thereof and use thereof” (priority 1978, dated 1989).

The test system of the experiment is reticuloendotherial system. The experiment in a line: Blood stream clearance of carbon. It is filed as in vivo, Mice (DDY male 5-6 W). As for the experimental part: 1. Carbon suspension. Rotoring drawing ink (170 mg carbon/ml.) was diluted to 1/5 of the original concentration in saline containing 1% gelatin.
2. 0.1% aqueous sodium carbonate solution.
Mice (DDY male 5-6 W) were injected via the tail vein with a dose of 0.01 ml/g body weight of carbon. Blood samples were taken by means of a pointed capillary pippet calibrated to hold a 50 μl and previously washed in heparin. This was plunged into the retrooribital venous sinus at the nasal angle of the eye. The samples were removed at 3 and to 6 min.
The blood was immediately discharged into 3.0 ml. of the sodium carbonate solution. This hemolyszed the blood and allowed the quantitation of carbon. The samples were then read in a spectrophotometer at 660 nm, the log concentration being obtained from a previously determined standard curve. The clearance value K may be determined by plotting log carbon concentration against time according to the following relationship; [formula] in which T1 and T2 represent the time in min when the sample were withdrawn and C1 and C2 represent the concentrations of carbon in the blood at the time T1 and T2, respectively.
The aqueous solution of the test compound as given was administered subcutaneously to mice. Twenty four hours later, blood stream clearance of carbon was measured. K value obtained with treated mice was compared with that of control mice.

Turning to `c1ccc([C@H]2CN3CCSC3=N2)cc1` [Levamisol], the Ktreated/Kcontrol entry (dose 10 mg/mouse) is “death”.

As to Tuftsin, the Ktreated/Kcontrol reads like this: (dose 125 mg/mouse) 1.0; (dose 400 mg/mouse) 1.4.
